From ChEMBL document CHEMBL1201861, “Genomics of Drug Sensitity in Cancer screening data, Wellcome Trust Sanger Institute”

What follows are compounds tested on OCUB-M (assay: cells). Settings: Homo sapiens.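 Note: growth inhibition of the cancer cell line, read out through a cell viability assay.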
Format: functional, cell-based
Description: SANGER: Inhibition of human OCUB-M cell growth in a cell viability assay.

SMILES	IC50
CC1=C(/C=C/C(C)=C/C=C/C(C)=C/C(=O)O)C(C)(C)CCC1 [TRETINOIN]	> 10 µM

These compounds were tested on HOP-62 (assay: cells). Settings: Homo sapiens, HOP-62.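 Note: cell growth inhibition determined with a viability assay.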
Format: functional, cell-based, Homo sapiens
Description: SANGER: Inhibition of human HOP-62 cell growth in a cell viability assay.

SMILES	IC50
CC1=C(/C=C/C(C)=C/C=C/C(C)=C/C(=O)O)C(C)(C)CCC1 [TRETINOIN]	> 10 µM

These compounds were tested on NB5 (assay: cells). Settings: Homo sapiens, NB5.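 Note: growth inhibition of NB5 cells, read out as cell viability.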
Format: functional, cell-based, Homo sapiens
Description: SANGER: Inhibition of human NB5 cell growth in a cell viability assay.

SMILES	IC50
CC1=C(/C=C/C(C)=C/C=C/C(C)=C/C(=O)O)C(C)(C)CCC1 [TRETINOIN]	> 10 µM

Each compound was assayed on NCI-H1304 (assay: cells). Settings: Homo sapiens, NCI-H1304.
Format: functional, cell-based, Homo sapiens
Description: SANGER: Inhibition of human NCI-H1304 cell growth in a cell viability assay.

SMILES	IC50
CC1=C(/C=C/C(C)=C/C=C/C(C)=C/C(=O)O)C(C)(C)CCC1 [TRETINOIN]	> 10 µM

The compounds below were run on GOTO (assay: cells). Settings: Homo sapiens, GOTO.
Format: functional, cell-based, Homo sapiens
Description: SANGER: Inhibition of human GOTO cell growth in a cell viability assay.

SMILES	IC50
CC1=C(/C=C/C(C)=C/C=C/C(C)=C/C(=O)O)C(C)(C)CCC1 [TRETINOIN]	> 10 µM

Each compound was assayed on LB771-HNC (assay: cells). Settings: Homo sapiens.
Format: functional, cell-based
Description: SANGER: Inhibition of human LB771-HNC cell growth in a cell viability assay.

SMILES	IC50
CC1=C(/C=C/C(C)=C/C=C/C(C)=C/C(=O)O)C(C)(C)CCC1 [TRETINOIN]	> 10 µM

What follows are compounds tested on GT3TKB (assay: cells). Settings: Homo sapiens, GT3TKB.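 Note: growth inhibition of the cell line, read out with a cell viability assay.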
Format: functional, cell-based, Homo sapiens
Description: SANGER: Inhibition of human GT3TKB cell growth in a cell viability assay.

SMILES	IC50
CC1=C(/C=C/C(C)=C/C=C/C(C)=C/C(=O)O)C(C)(C)CCC1 [TRETINOIN]	> 10 µM

Each compound was assayed on SH-4 (assay: cells). Settings: Homo sapiens.
Format: functional, cell-based
Description: SANGER: Inhibition of human SH-4 cell growth in a cell viability assay.

SMILES	IC50
CC1=C(/C=C/C(C)=C/C=C/C(C)=C/C(=O)O)C(C)(C)CCC1 [TRETINOIN]	> 10 µM

Each compound was assayed on C2BBe1 (assay: cells). Settings: Homo sapiens, C2BBe1.
Format: functional, cell-based, Homo sapiens
Description: SANGER: Inhibition of human C2BBe1 cell growth in a cell viability assay.

SMILES	IC50
CC1=C(/C=C/C(C)=C/C=C/C(C)=C/C(=O)O)C(C)(C)CCC1 [TRETINOIN]	> 10 µM

What follows are compounds tested on ALL-PO (assay: cells). Settings: Homo sapiens, ALL-PO.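 Note: growth inhibition of ALL-PO cells, read out by a cell viability assay.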
Format: functional, cell-based, Homo sapiens
Description: SANGER: Inhibition of human ALL-PO cell growth in a cell viability assay.

SMILES	IC50
CC1=C(/C=C/C(C)=C/C=C/C(C)=C/C(=O)O)C(C)(C)CCC1 [TRETINOIN]	6.87 µM

What follows are compounds tested on MPP-89 (assay: cells). Settings: Homo sapiens, MPP-89.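 Note: growth inhibition of human MPP-89 cells, read out with a cell viability assay.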
Format: functional, cell-based, Homo sapiens
Description: SANGER: Inhibition of human MPP-89 cell growth in a cell viability assay.

SMILES	IC50
CC1=C(/C=C/C(C)=C/C=C/C(C)=C/C(=O)O)C(C)(C)CCC1 [TRETINOIN]	> 10 µM

What follows are compounds tested on COLO-684 (assay: cells). Settings: Homo sapiens, COLO-684.
Format: functional, cell-based, Homo sapiens
Description: SANGER: Inhibition of human COLO-684 cell growth in a cell viability assay.

SMILES	IC50
CC1=C(/C=C/C(C)=C/C=C/C(C)=C/C(=O)O)C(C)(C)CCC1 [TRETINOIN]	> 10 µM

These compounds were tested on LAN-6 (assay: cells). Settings: Homo sapiens, LAN-6.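 Note: growth inhibition of LAN-6 cells, determined with a cell viability assay.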
Format: functional, cell-based, Homo sapiens
Description: SANGER: Inhibition of human LAN-6 cell growth in a cell viability assay.

SMILES	IC50
CC1=C(/C=C/C(C)=C/C=C/C(C)=C/C(=O)O)C(C)(C)CCC1 [TRETINOIN]	> 10 µM

What follows are compounds tested on GB-1 (assay: cells). Settings: Homo sapiens, GB-1.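 Note: growth of GB-1 cells judged by a viability assay, IC50 marks the concentration inhibiting growth.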
Format: functional, cell-based, Homo sapiens
Description: SANGER: Inhibition of human GB-1 cell growth in a cell viability assay.

SMILES	IC50
CC1=C(/C=C/C(C)=C/C=C/C(C)=C/C(=O)O)C(C)(C)CCC1 [TRETINOIN]	> 10 µM

These compounds were tested on Lu-65 (assay: cells). Settings: Homo sapiens, Lu-65.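 Note: growth inhibition of Lu-65 cancer cells, read out by a cell viability assay.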
Format: functional, cell-based, Homo sapiens
Description: SANGER: Inhibition of human LU-65 cell growth in a cell viability assay.

SMILES	IC50
CC1=C(/C=C/C(C)=C/C=C/C(C)=C/C(=O)O)C(C)(C)CCC1 [TRETINOIN]	> 10 µM

Each compound was assayed on KS-1 (assay: cells). Settings: Homo sapiens.
Format: functional, cell-based
Description: SANGER: Inhibition of human KS-1 cell growth in a cell viability assay.

SMILES	IC50
CC1=C(/C=C/C(C)=C/C=C/C(C)=C/C(=O)O)C(C)(C)CCC1 [TRETINOIN]	> 10 µM

Each compound was assayed on KGN (assay: cells). Settings: Homo sapiens, KGN.
Format: functional, cell-based, Homo sapiens
Description: SANGER: Inhibition of human KGN cell growth in a cell viability assay.

SMILES	IC50
CC1=C(/C=C/C(C)=C/C=C/C(C)=C/C(=O)O)C(C)(C)CCC1 [TRETINOIN]	> 10 µM

What follows are compounds tested on KE-37 (assay: cells). Settings: Homo sapiens, KE-37.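 Note: growth inhibition of KE-37 cells, read out with a cell viability assay.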
Format: functional, cell-based, Homo sapiens
Description: SANGER: Inhibition of human KE-37 cell growth in a cell viability assay.

SMILES	IC50
CC1=C(/C=C/C(C)=C/C=C/C(C)=C/C(=O)O)C(C)(C)CCC1 [TRETINOIN]	> 10 µM

What follows are compounds tested on MZ2-MEL (assay: cells). Settings: Homo sapiens, MZ2-MEL.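 Note: growth inhibition of MZ2-MEL cells read out with a cell viability assay.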
Format: functional, cell-based, Homo sapiens
Description: SANGER: Inhibition of human MZ2-MEL cell growth in a cell viability assay.

SMILES	IC50
CC1=C(/C=C/C(C)=C/C=C/C(C)=C/C(=O)O)C(C)(C)CCC1 [TRETINOIN]	> 10 µM

These compounds were tested on DJM-1 (assay: cells). Settings: Homo sapiens, DJM-1.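 Note: growth inhibition of human DJM-1 cells, read out by a cell viability assay.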
Format: functional, cell-based, Homo sapiens
Description: SANGER: Inhibition of human DJM-1 cell growth in a cell viability assay.

SMILES	IC50
CC1=C(/C=C/C(C)=C/C=C/C(C)=C/C(=O)O)C(C)(C)CCC1 [TRETINOIN]	> 10 µM

The compounds below were run on OVCAR-4 (assay: cells). Settings: Homo sapiens, OVCAR-4.
Format: functional, cell-based, Homo sapiens
Description: SANGER: Inhibition of human OVCAR-4 cell growth in a cell viability assay.

SMILES	IC50
CC1=C(/C=C/C(C)=C/C=C/C(C)=C/C(=O)O)C(C)(C)CCC1 [TRETINOIN]	> 10 µM

These compounds were tested on MC116 (assay: cells). Settings: Homo sapiens, MC116.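 Note: growth inhibition of MC116 cells, read out with a cell viability assay.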
Format: functional, cell-based, Homo sapiens
Description: SANGER: Inhibition of human MC116 cell growth in a cell viability assay.

SMILES	IC50
CC1=C(/C=C/C(C)=C/C=C/C(C)=C/C(=O)O)C(C)(C)CCC1 [TRETINOIN]	> 10 µM

What follows are compounds tested on HL-60 (assay: cells). Settings: Homo sapiens, HL-60.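 Note: growth inhibition of human HL-60 cells, read out with a cell viability assay.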
Format: functional, cell-based, Homo sapiens
Description: SANGER: Inhibition of human HL-60 cell growth in a cell viability assay.

SMILES	IC50
CC1=C(/C=C/C(C)=C/C=C/C(C)=C/C(=O)O)C(C)(C)CCC1 [TRETINOIN]	0.285 µM

Each compound was assayed on NCI-H2126 (assay: cells). Settings: Homo sapiens, NCI-H2126.
Format: functional, cell-based, Homo sapiens
Description: SANGER: Inhibition of human NCI-H2126 cell growth in a cell viability assay.

SMILES	IC50
CC1=C(/C=C/C(C)=C/C=C/C(C)=C/C(=O)O)C(C)(C)CCC1 [TRETINOIN]	> 10 µM

Each compound was assayed on KARPAS-45 (assay: cells). Settings: Homo sapiens, KARPAS-45.
Format: functional, cell-based, Homo sapiens
Description: SANGER: Inhibition of human KARPAS-45 cell growth in a cell viability assay.

SMILES	IC50
CC1=C(/C=C/C(C)=C/C=C/C(C)=C/C(=O)O)C(C)(C)CCC1 [TRETINOIN]	2.6 µM

These compounds were tested on NKM-1 (assay: cells). Settings: Homo sapiens, NKM-1.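 Note: growth inhibition of NKM-1 cells, read out with a cell viability assay.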
Format: functional, cell-based, Homo sapiens
Description: SANGER: Inhibition of human NKM-1 cell growth in a cell viability assay.

SMILES	IC50
CC1=C(/C=C/C(C)=C/C=C/C(C)=C/C(=O)O)C(C)(C)CCC1 [TRETINOIN]	8.41 µM

Each compound was assayed on SNU-C2B (assay: cells). Settings: Homo sapiens.
Format: functional, cell-based
Description: SANGER: Inhibition of human SNU-C2B cell growth in a cell viability assay.

SMILES	IC50
CC1=C(/C=C/C(C)=C/C=C/C(C)=C/C(=O)O)C(C)(C)CCC1 [TRETINOIN]	> 10 µM

Each compound was assayed on NCI-H1395 (assay: cells). Settings: Homo sapiens, NCI-H1395.
Format: functional, cell-based, Homo sapiens
Description: SANGER: Inhibition of human NCI-H1395 cell growth in a cell viability assay.

SMILES	IC50
CC1=C(/C=C/C(C)=C/C=C/C(C)=C/C(=O)O)C(C)(C)CCC1 [TRETINOIN]	> 10 µM

These compounds were tested on VA-ES-BJ (assay: cells). Settings: Homo sapiens, VA-ES-BJ.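 Note: growth inhibition of the VA-ES-BJ cell line, read out by a cell viability assay.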
Format: functional, cell-based, Homo sapiens
Description: SANGER: Inhibition of human VA-ES-BJ cell growth in a cell viability assay.

SMILES	IC50
CC1=C(/C=C/C(C)=C/C=C/C(C)=C/C(=O)O)C(C)(C)CCC1 [TRETINOIN]	> 10 µM

Each compound was assayed on TE-10 (assay: cells). Settings: Homo sapiens, TE-10.
Format: functional, cell-based, Homo sapiens
Description: SANGER: Inhibition of human TE-10 cell growth in a cell viability assay.

SMILES	IC50
CC1=C(/C=C/C(C)=C/C=C/C(C)=C/C(=O)O)C(C)(C)CCC1 [TRETINOIN]	> 10 µM

What follows are compounds tested on MMAC-SF (assay: cells). Settings: Homo sapiens.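 Note: growth inhibition of human MMAC-SF cells, read out with a cell viability assay.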
Format: functional, cell-based
Description: SANGER: Inhibition of human MMAC-SF cell growth in a cell viability assay.

SMILES	IC50
CC1=C(/C=C/C(C)=C/C=C/C(C)=C/C(=O)O)C(C)(C)CCC1 [TRETINOIN]	> 10 µM

Each compound was assayed on DMS-114 (assay: cells). Settings: Homo sapiens, DMS-114.
Format: functional, cell-based, Homo sapiens

SMILES	IC50
CC1=C(/C=C/C(C)=C/C=C/C(C)=C/C(=O)O)C(C)(C)CCC1 [TRETINOIN]	> 10 µM

Each compound was assayed on RCC10RGB (assay: cells). Settings: Homo sapiens, RCC10RGB.
Format: functional, cell-based, Homo sapiens
Description: SANGER: Inhibition of human RCC10RGB cell growth in a cell viability assay.

SMILES	IC50
CC1=C(/C=C/C(C)=C/C=C/C(C)=C/C(=O)O)C(C)(C)CCC1 [TRETINOIN]	> 10 µM

What follows are compounds tested on NCI-H747 (assay: cells). Settings: Homo sapiens, NCI-H747.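 Note: growth inhibition of human NCI-H747 cells, read out by a cell viability assay.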
Format: functional, cell-based, Homo sapiens
Description: SANGER: Inhibition of human NCI-H747 cell growth in a cell viability assay.

SMILES	IC50
CC1=C(/C=C/C(C)=C/C=C/C(C)=C/C(=O)O)C(C)(C)CCC1 [TRETINOIN]	> 10 µM

Each compound was assayed on MOLT-16 (assay: cells). Settings: Homo sapiens, MOLT-16.
Format: functional, cell-based, Homo sapiens
Description: SANGER: Inhibition of human MOLT-16 cell growth in a cell viability assay.

SMILES	IC50
CC1=C(/C=C/C(C)=C/C=C/C(C)=C/C(=O)O)C(C)(C)CCC1 [TRETINOIN]	> 10 µM

What follows are compounds tested on BE-13 (assay: cells). Settings: Homo sapiens, BE-13.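 Note: growth inhibition of human BE-13 cells, measured with a cell viability assay.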
Format: functional, cell-based, Homo sapiens
Description: SANGER: Inhibition of human BE-13 cell growth in a cell viability assay.

SMILES	IC50
CC1=C(/C=C/C(C)=C/C=C/C(C)=C/C(=O)O)C(C)(C)CCC1 [TRETINOIN]	> 10 µM

The compounds below were run on BB49-HNC (assay: cells). Settings: Homo sapiens, BB49-HNC.
Format: functional, cell-based, Homo sapiens
Description: SANGER: Inhibition of human BB49-HNC cell growth in a cell viability assay.

SMILES	IC50
CC1=C(/C=C/C(C)=C/C=C/C(C)=C/C(=O)O)C(C)(C)CCC1 [TRETINOIN]	> 10 µM

Each compound was assayed on NB6 (assay: cells). Settings: Homo sapiens, NB6.
Format: functional, cell-based, Homo sapiens
Description: SANGER: Inhibition of human NB6 cell growth in a cell viability assay.

SMILES	IC50
CC1=C(/C=C/C(C)=C/C=C/C(C)=C/C(=O)O)C(C)(C)CCC1 [TRETINOIN]	> 10 µM

These compounds were tested on RXF 393 (assay: cells). Settings: Homo sapiens, RXF 393.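 Note: growth inhibition of human RXF 393 cells, read out with a cell viability assay.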
Format: functional, cell-based, Homo sapiens
Description: SANGER: Inhibition of human RXF393 cell growth in a cell viability assay.

SMILES	IC50
CC1=C(/C=C/C(C)=C/C=C/C(C)=C/C(=O)O)C(C)(C)CCC1 [TRETINOIN]	> 10 µM

The compounds below were run on GR-ST (assay: cells). Settings: Homo sapiens, GR-ST.
Format: functional, cell-based, Homo sapiens
Description: SANGER: Inhibition of human GR-ST cell growth in a cell viability assay.

SMILES	IC50
CC1=C(/C=C/C(C)=C/C=C/C(C)=C/C(=O)O)C(C)(C)CCC1 [TRETINOIN]	> 10 µM

Each compound was assayed on SF-126 (assay: cells). Settings: Homo sapiens, SF-126.
Format: functional, cell-based, Homo sapiens
Description: SANGER: Inhibition of human SF126 cell growth in a cell viability assay.

SMILES	IC50
CC1=C(/C=C/C(C)=C/C=C/C(C)=C/C(=O)O)C(C)(C)CCC1 [TRETINOIN]	> 10 µM

What follows are compounds tested on GI-1 (assay: cells). Settings: Homo sapiens, GI-1.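 Note: growth inhibition of human GI-1 cells, measured with a cell viability readout.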
Format: functional, cell-based, Homo sapiens
Description: SANGER: Inhibition of human GI-1 cell growth in a cell viability assay.

SMILES	IC50
CC1=C(/C=C/C(C)=C/C=C/C(C)=C/C(=O)O)C(C)(C)CCC1 [TRETINOIN]	> 10 µM

What follows are compounds tested on TGBC24TKB (assay: cells). Settings: Homo sapiens.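 Note: growth inhibition of human TGBC24TKB cells, read out with a cell viability assay.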
Format: functional, cell-based
Description: SANGER: Inhibition of human TGBC24TKB cell growth in a cell viability assay.

SMILES	IC50
CC1=C(/C=C/C(C)=C/C=C/C(C)=C/C(=O)O)C(C)(C)CCC1 [TRETINOIN]	> 10 µM

The compounds below were run on EW-16 (assay: cells). Settings: Homo sapiens, EW-16.
Format: functional, cell-based, Homo sapiens
Description: SANGER: Inhibition of human EW-16 cell growth in a cell viability assay.

SMILES	IC50
CC1=C(/C=C/C(C)=C/C=C/C(C)=C/C(=O)O)C(C)(C)CCC1 [TRETINOIN]	> 10 µM

Each compound was assayed on LS-1034 (assay: cells). Settings: Homo sapiens, LS-1034.
Format: functional, cell-based, Homo sapiens
Description: SANGER: Inhibition of human LS-1034 cell growth in a cell viability assay.

SMILES	IC50
CC1=C(/C=C/C(C)=C/C=C/C(C)=C/C(=O)O)C(C)(C)CCC1 [TRETINOIN]	> 10 µM

These compounds were tested on SK-MEL-1 (assay: cells). Settings: Homo sapiens, SK-MEL-1.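 Note: growth inhibition of human SK-MEL-1 cells, read out by a cell viability assay.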
Format: functional, cell-based, Homo sapiens
Description: SANGER: Inhibition of human SK-MEL-1 cell growth in a cell viability assay.

SMILES	IC50
CC1=C(/C=C/C(C)=C/C=C/C(C)=C/C(=O)O)C(C)(C)CCC1 [TRETINOIN]	> 10 µM

Each compound was assayed on no-11 (assay: cells). Settings: Homo sapiens.
Format: functional, cell-based, Homo sapiens
Description: SANGER: Inhibition of human no-11 cell growth in a cell viability assay.

SMILES	IC50
CC1=C(/C=C/C(C)=C/C=C/C(C)=C/C(=O)O)C(C)(C)CCC1 [TRETINOIN]	> 10 µM

The compounds below were run on KLE (assay: cells). Settings: Homo sapiens.
Format: functional, cell-based
Description: SANGER: Inhibition of human KLE cell growth in a cell viability assay.

SMILES	IC50
CC1=C(/C=C/C(C)=C/C=C/C(C)=C/C(=O)O)C(C)(C)CCC1 [TRETINOIN]	> 10 µM

What follows are compounds tested on GI-ME-N (assay: cells). Settings: Homo sapiens, GI-ME-N.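 Note: growth inhibition of human GI-ME-N cells, read out with a cell viability assay.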
Format: functional, cell-based, Homo sapiens
Description: SANGER: Inhibition of human GI-ME-N cell growth in a cell viability assay.

SMILES	IC50
CC1=C(/C=C/C(C)=C/C=C/C(C)=C/C(=O)O)C(C)(C)CCC1 [TRETINOIN]	> 10 µM

The compounds below were run on COR-L88 (assay: cells). Settings: Homo sapiens, COR-L88.
Format: functional, cell-based, Homo sapiens
Description: SANGER: Inhibition of human COR-L88 cell growth in a cell viability assay.

SMILES	IC50
CC1=C(/C=C/C(C)=C/C=C/C(C)=C/C(=O)O)C(C)(C)CCC1 [TRETINOIN]	3.86 µM

What follows are compounds tested on EW-11 (assay: cells). Settings: Homo sapiens, EW-11.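 Note: growth inhibition of human EW-11 cells, measured with a cell viability assay.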
Format: functional, cell-based, Homo sapiens
Description: SANGER: Inhibition of human EW-11 cell growth in a cell viability assay.

SMILES	IC50
CC1=C(/C=C/C(C)=C/C=C/C(C)=C/C(=O)O)C(C)(C)CCC1 [TRETINOIN]	> 10 µM
